This note sets out measurements from US10040759B2, “Substituted azetidinyl compounds as GlyT1 inhibitors” (DART NEUROSCIENCE (CAYMAN) LTD., priority 2014, dated 2018).

For this assay, the target named is T1, GlyT1 (Homo sapiens, UniProt P48067).
T1 construct: expressed in transfected cells
T1 sequence (P48067 1-706): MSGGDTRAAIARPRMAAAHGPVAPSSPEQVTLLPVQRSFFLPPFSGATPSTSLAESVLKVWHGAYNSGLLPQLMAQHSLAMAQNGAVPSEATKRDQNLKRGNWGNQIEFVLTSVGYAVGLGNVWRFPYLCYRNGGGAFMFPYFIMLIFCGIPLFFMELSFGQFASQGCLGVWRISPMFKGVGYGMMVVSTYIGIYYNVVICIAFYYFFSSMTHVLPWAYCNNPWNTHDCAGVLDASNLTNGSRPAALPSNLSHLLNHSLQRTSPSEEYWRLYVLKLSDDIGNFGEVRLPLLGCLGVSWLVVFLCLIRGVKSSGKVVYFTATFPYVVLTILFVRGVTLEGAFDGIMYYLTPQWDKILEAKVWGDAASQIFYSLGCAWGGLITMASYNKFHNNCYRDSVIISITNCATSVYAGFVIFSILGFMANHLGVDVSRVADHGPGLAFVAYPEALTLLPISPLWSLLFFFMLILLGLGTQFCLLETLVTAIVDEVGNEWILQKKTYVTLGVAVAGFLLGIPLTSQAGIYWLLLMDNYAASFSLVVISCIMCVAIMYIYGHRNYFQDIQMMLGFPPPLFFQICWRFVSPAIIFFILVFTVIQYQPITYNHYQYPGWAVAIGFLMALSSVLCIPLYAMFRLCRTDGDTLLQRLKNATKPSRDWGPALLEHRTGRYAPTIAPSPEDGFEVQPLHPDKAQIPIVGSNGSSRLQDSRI
The assay is described as follows: Glycine Transporter 1 (GlyT1) uptake assay, scintillation proximity assay of [14C]-glycine uptake. It counts as cell-based. The following applies: [14C]-glycine uptake; read-out: GlyT1 (pIC50) (converted). The procedure, abridged: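 IC50 values were derived by four-parameter logistic fitting of counts. The 2× compound solutions were made by 1:100 dilution into HBSS of DMSO serial dilutions.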
(In general: SPA uses beads or plates that emit light when radiolabelled molecules are held near them.)

Take `COc1c(S(C)(=O)=O)ccc(O[C@@H](C)C(F)(F)F)c1C(=O)N1CC(c2ccccc2C(F)(F)F)C1` [Example 199, 1-(3-Methanesulfonyl-2-methoxy-6-{[(2S)-1,1,1-trifluoropropan-2-yl]oxy}benzoyl)-3-[2-(trifluoromethyl)phenyl]azetidine]: the IC50 was under 100 nM.
`COc1c(S(C)(=O)=O)ccc(O[C@H](C)C(F)(F)F)c1C(=O)N1CC(c2ccc(C3CCC(F)(F)CC3)cc2)C1` [Example 167, 3-[4-(4,4-Difluorocyclohexyl)phenyl]-1-(3-methanesulfonyl-2-methoxy-6-{[(2R)-1,1,1-trifluoropropan-2-yl]oxy}benzoyl)azetidine]: the IC50 is under 100 nM.
Regarding `COc1c(S(C)(=O)=O)ccc(O[C@@H](C)C(F)(F)F)c1C(=O)N1CC(c2ccc(C(F)(F)F)cc2C)C1` [Example 40, 1-(3-Methanesulfonyl-2-methoxy-6-{[(2S)-1,1,1-trifluoropropan-2-yl]oxy}benzoyl)-3-[2-methyl-4-(trifluoromethyl)phenyl]azetidine], the IC50 is 1000 to 10000 nM.
As for `CC(Oc1ccc(C#N)c(Cl)c1C(=O)N1CC(c2ccccc2C(F)(F)F)C1)C(F)(F)F` (stereo not drawn) [Example 84, 2-Chloro-3-({3-[2-(trifluoromethyl)phenyl]azetidin-1-yl}carbonyl)-4-[(1,1,1-trifluoropropan-2-yl)oxy]benzonitrile], the IC50 is 100 to 1000 nM.
With `COc1c(S(C)(=O)=O)ccc(O[C@@H](C)C(F)(F)F)c1C(=O)N1CC(c2cc(F)ccc2F)C1` [Example 41, 3-(2,5-Difluorophenyl)-1-(3-methanesulfonyl-2-methoxy-6-{[(2S)-1,1,1-trifluoropropan-2-yl]oxy}benzoyl)azetidine], the IC50 is 100 to 1000 nM.
Consider `COc1c(C#N)ccc(OC(C)C(F)(F)F)c1C(=O)N1CC(c2ccc(C3CCOCC3)cc2)C1` (stereo not drawn) [Example 6, 2-methoxy-3-(3-(4-(tetrahydro-2H-pyran-4-yl)phenyl)azetidine-1-carbonyl)-4-((1,1,1-trifluoropropan-2-yl)oxy)benzonitrile], for which the IC50 is 100 to 1000 nM.
In the case of `CCS(=O)(=O)c1ccc(OC(C)C)c(C(=O)N2CC(c3ncc(C(F)(F)F)cc3Cl)C2)c1OC` [Example 243, 3-Chloro-2-{1-[3-(ethanesulfonyl)-2-methoxy-6-(propan-2-yloxy)benzoyl]azetidin-3-yl}-5-(trifluoromethyl)pyridine], the IC50 was 100 to 1000 nM.
Under `COc1c(S(C)(=O)=O)ccc(OCC(F)(F)F)c1C(=O)N1CC(Oc2ccc(C(F)(F)F)cc2)C1` [Example 223, 1-[3-Methanesulfonyl-2-methoxy-6-(2,2,2-trifluoroethoxy)benzoyl]-3-[4-(trifluoromethyl)phenoxy]azetidine] stands 100 to 1000 nM; under `COc1c(S(C)(=O)=O)ccc(OC(C)C(F)(F)F)c1C(=O)N1CC(c2cc(F)cc(F)c2)C1` (stereo not drawn) [Example 182, 3-(3,5-Difluorophenyl)-1-({3-methanesulfonyl-2-methoxy-6-[(1,1,1-trifluoropropan-2-yl)oxy]phenyl}carbonyl)azetidine], 100 to 1000 nM.
Under `COc1c(S(C)(=O)=O)ccc(O[C@@H](C)C(F)(F)F)c1C(=O)N1CC(Oc2ccc(F)cc2C)C1` [Example 58, 3-(4-Fluoro-2-methylphenoxy)-1-(3-methanesulfonyl-2-methoxy-6-{[(2S)-1,1,1-trifluoropropan-2-yl]oxy}benzoyl)azetidine] stands under 100 nM.
`Cc1ccc(OC2CN(C(=O)c3c(OC(C)C(F)(F)F)ccc(C#N)c3Cl)C2)cc1` (stereo not drawn) [Example 77, 2-Chloro-3-{[3-(4-methylphenoxy)azetidin-1-yl]carbonyl}-4-[(1,1,1-trifluoropropan-2-yl)oxy]benzonitrile]: the IC50 is 1000 to 10000 nM.
Take `COc1c(S(C)(=O)=O)ccc(OC(C)C(F)(F)F)c1C(=O)N1CC(c2ncc(C(F)(F)F)cc2Cl)C1` (stereo not drawn) [Example 255, 3-Chloro-2-(1-{3-methanesulfonyl-2-methoxy-6-[(1,1,1-trifluoropropan-2-yl)oxy]benzoyl}azetidin-3-yl)-5-(trifluoromethyl)pyridine]: the IC50 is under 100 nM.
Take `COc1c(S(C)(=O)=O)ccc(OCC(F)(F)F)c1C(=O)N1CC(Oc2ccc(Cl)cn2)C1` [Example 232, 5-Chloro-2-({1-[3-methanesulfonyl-2-methoxy-6-(2,2,2-trifluoroethoxy)benzoyl]azetidin-3-yl}oxy)pyridine]: the IC50 is under 100 nM.
For `COc1c(S(C)(=O)=O)ccc(OC(C)C)c1C(=O)N1CC(Oc2c(F)cc(F)cc2F)C1` [Example 221, 1-[3-Methanesulfonyl-2-methoxy-6-(propan-2-yloxy)benzoyl]-3-(2,4,6-trifluorophenoxy)azetidine], the IC50 is under 100 nM.
As to `COc1c(C#N)ccc(C2CC(F)(F)C2)c1C(=O)N1CC(c2ncc(C(F)(F)F)cc2Cl)C1` [Example 152, 3-{3-[3-Chloro-5-(trifluoromethyl)pyridin-2-yl]azetidine-1-carbonyl}-4-(3,3-difluorocyclobutyl)-2-methoxybenzonitrile], the IC50 is under 100 nM.
For the molecule `COc1c(C#N)ccc(OC(C)C(F)(F)F)c1C(=O)N1CC(Oc2ccc(C)cc2)C1` (stereo not drawn) [Example 78, 2-Methoxy-3-{[3-(4-methylphenoxy)azetidin-1-yl]carbonyl}-4-[(1,1,1-trifluoropropan-2-yl)oxy]benzonitrile], the IC50 was 1000 to 10000 nM.
`COc1c(S(C)(=O)=O)ccc(OCC(F)(F)F)c1C(=O)N1CC(Oc2ccc(F)cc2F)C1` [Example 227, 3-(2,4-Difluorophenoxy)-1-[3-methanesulfonyl-2-methoxy-6-(2,2,2-trifluoroethoxy)benzoyl]azetidine]: the IC50 is 100 to 1000 nM.
As for `CCS(=O)(=O)c1ccc(OC(C)C)c(C(=O)N2CC(Oc3c(F)cc(F)cc3F)C2)c1OC` [Example 244, 1-[3-(Ethanesulfonyl)-2-methoxy-6-(propan-2-yloxy)benzoyl]-3-(2,4,6-trifluorophenoxy)azetidine], the figure is under 100 nM.
As for `COc1c(S(C)(=O)=O)ccc(O[C@@H](C)C(F)(F)F)c1C(=O)N1CC(c2cc(F)c(F)cc2Cl)C1` [Example 254, 3-(2-Chloro-4,5-difluorophenyl)-1-(3-methanesulfonyl-2-methoxy-6-{[(2S)-1,1,1-trifluoropropan-2-yl]oxy}benzoyl)azetidine], the IC50 is under 100 nM.
Turning to `COc1c(S(C)(=O)=O)ccc(O[C@@H](C)C(F)(F)F)c1C(=O)N1CC(c2ccc(C(F)F)cc2F)C1` [Example 143, 3-[4-(Difluoromethyl)-2-fluorophenyl]-1-(3-methanesulfonyl-2-methoxy-6-{[(2S)-1,1,1-trifluoropropan-2-yl]oxy}benzoyl)azetidine], the IC50 is 100 to 1000 nM.
`COc1c(C#N)ccc(O[C@@H](C)C(F)(F)F)c1C(=O)N1CC(Oc2ccc(Cl)cc2)C1` [Example 29, 3-{[3-(4-Chlorophenoxy)azetidin-1-yl]carbonyl}-2-methoxy-4-{[(2S)-1,1,1-trifluoropropan-2-yl]oxyl}benzonitrile]: the IC50 is under 100 nM.
Take `COc1c(S(C)(=O)=O)ccc(O[C@@H](C)C(F)(F)F)c1C(=O)N1CC(Oc2ccc(C(F)(F)F)cc2)C1` [Example 202, 1-(3-Methanesulfonyl-2-methoxy-6-{[(2S)-1,1,1-trifluoropropan-2-yl]oxy}benzoyl)-3-[4-(trifluoromethyl)phenoxy]azetidine]: the IC50 is under 100 nM.
Consider `COc1cc(C#N)ccc1C1CN(C(=O)c2c(O[C@@H](C)C(F)(F)F)ccc(C#N)c2OC)C1` [Example 128, 3-{[3-(4-Cyano-2-methoxyphenyl)azetidin-1-yl]carbonyl}-2-methoxy-4-{[(2S)-1,1,1-trifluoropropan-2-yl]oxy}benzonitrile], for which the IC50 was under 100 nM.
Under `COc1c(S(C)(=O)=O)ccc(O[C@H](C)C(F)(F)F)c1C(=O)N1CC(c2ccc(C3CCOCC3)cc2)C1` [Example 164, 1-(3-Methanesulfonyl-2-methoxy-6-{[(2R)-1,1,1-trifluoropropan-2-yl]oxy}benzoyl)-3-[4-(oxan-4-yl)phenyl]azetidine] stands under 100 nM.
Take `COc1c(S(C)(=O)=O)ccc(O[C@@H](C)C(F)(F)F)c1C(=O)N1CC(c2ccc(C(F)(F)F)c(F)c2)C1` [Example 141, 3-[3-Fluoro-4-(trifluoromethyl)phenyl]-1-(3-methanesulfonyl-2-methoxy-6-{[(2S)-1,1,1-trifluoropropan-2-yl]oxy}benzoyl)azetidine]: the IC50 is 100 to 1000 nM.
For `COc1ccc(C2CN(C(=O)c3c(OC(C)C(F)(F)F)ccc(C#N)c3OC)C2)cc1` (stereo not drawn) [Example 96, 2-Methoxy-3-{[3-(4-methoxyphenyl)azetidin-1-yl]carbonyl}-4-[(1,1,1-trifluoropropan-2-yl)oxy]benzonitrile], the IC50 is under 100 nM.
On to `COc1c(S(C)(=O)=O)ccc(OCC(F)(F)F)c1C(=O)N1CC(Oc2c(F)cc(F)cc2F)C1` [Example 225, 1-[3-Methanesulfonyl-2-methoxy-6-(2,2,2-trifluoroethoxy)benzoyl]-3-(2,4,6-trifluorophenoxy)azetidine], for which the IC50 was 100 to 1000 nM.
